Measured values from US8877748B2, “Heterocyclic fused anthraquinone derivatives, manufacturing method and pharmaceutical composition using thereof” (National Defense Medical Center, priority 2012, dated 2014).

Columns and labels:
DU145 = assay: NCI one-dose screening, prostate cancer DU145; type: cell-based, human; conditions: 10 μM
SR = assay: NCI one-dose screening, leukemia SR; type: cell-based, human; conditions: 10 μM
HOP-92 = assay: NCI one-dose screening, non-small cell lung cancer HOP-92; type: cell-based, human; conditions: 10 μM
CCRF-CEM = assay: NCI screening platform one-dose single concentration screening, leukemia CCRF-CEM; type: cell-based, human; conditions: 10 μM
CAKI-1 = assay: NCI one-dose screening, renal cancer CAKI-1; type: cell-based, human; conditions: 10 μM
MALME-3M = assay: NCI one-dose screening, melanoma MALME-3M; type: cell-based, human; conditions: 10 μM
TK-10 = assay: NCI one-dose screening, renal cancer TK-10; type: cell-based, human; conditions: 10 μM
MCF7 = assay: NCI one-dose screening, breast cancer MCF7; type: cell-based, human; conditions: 10 μM
PRMI-8226 cell line = assay: NCI one-dose screening, leukemia PRMI-8226; type: cell-based, human; conditions: 10 μM
U251 = assay: NCI one-dose screening, CNS cancer U251; type: cell-based, human; conditions: 10 μM
human tumor cell lines = assay: NCI one-dose screening, Mean / Delta / Range of growth percent over all tested cell lines; type: cell-based; conditions: 10 μM; for Growth Percent Delta: delta over all cell lines; for Growth Percent Mean: mean over all cell lines; for Growth Percent Range: range over all cell lines
MDA, -MB-435 = assay: NCI one-dose screening, breast cancer MDA, -MB-435; type: cell-based, human; conditions: 10 μM; listed under Melanoma
SK-MEL-28 = assay: NCI one-dose screening, melanoma SK-MEL-28; type: cell-based, human; conditions: 10 μM
SK-OV-3 = assay: NCI one-dose screening, ovarian cancer SK-OV-3; type: cell-based, human; conditions: 10 μM
[1] = NCI one-dose screening, renal cancer A489; type: cell-based, human; conditions: 10 μM
OVCAR-3 = assay: NCI one-dose screening, ovarian cancer OVCAR-3; type: cell-based, human; conditions: 10 μM
RXF, 393 = assay: NCI one-dose screening, renal cancer RXF, 393; type: cell-based, human; conditions: 10 μM
NCI-H322M = assay: NCI one-dose screening, non-small cell lung cancer NCI-H322M; type: cell-based, human; conditions: 10 μM; Non-small cell lung cancer
MOLT-4 = assay: NCI one-dose screening, leukemia MOLT-4; type: cell-based, human; conditions: 10 μM
SNB-75 = assay: NCI one-dose screening, CNS cancer SNB-75; type: cell-based, human; conditions: 10 μM
SNB-19 = assay: NCI one-dose screening, CNS cancer SNB-19; type: cell-based, human; conditions: 10 μM
HOP-62 = assay: NCI one-dose screening, non-small cell lung cancer HOP-62; type: cell-based, human; conditions: 10 μM
UO-31 = assay: NCI one-dose screening, renal cancer UO-31; type: cell-based, human; conditions: 10 μM
UACC-257 = assay: NCI one-dose screening, melanoma UACC-257; type: cell-based, human; conditions: 10 μM
NCI-H23 = assay: NCI one-dose screening, non-small cell lung cancer NCI-H23; type: cell-based, human; conditions: 10 μM
MDA-MB-468 = assay: NCI one-dose screening, breast cancer MDA-MB-468; type: cell-based, human; conditions: 10 μM
HL-60, TB = assay: NCI one-dose screening, leukemia HL-60, TB; type: cell-based, human; conditions: 10 μM
SK-MEL-2 = assay: NCI one-dose screening, melanoma SK-MEL-2; type: cell-based, human; conditions: 10 μM
NCI-H460 = assay: NCI one-dose screening, non-small cell lung cancer NCI-H460; type: cell-based, human; conditions: 10 μM
HCT-15 = assay: NCI one-dose screening, colon cancer HCT-15; type: cell-based, human; conditions: 10 μM
M14 = assay: NCI one-dose screening, melanoma M14; type: cell-based, human; conditions: 10 μM
K562cell line = assay: NCI one-dose screening, leukemia K562; type: cell-based, human; conditions: 10 μM
A549/ATCC = assay: NCI one-dose screening, non-small cell lung cancer A549/ATCC; type: cell-based, human; conditions: 10 μM
LOX IMVI = assay: NCI one-dose screening, melanoma LOX IMVI; type: cell-based, human; conditions: 10 μM
HT29 = assay: NCI one-dose screening, colon cancer HT29; type: cell-based, human; conditions: 10 μM
HS 578-T = assay: NCI one-dose screening, breast cancer HS 578-T; type: cell-based, human; conditions: 10 μM; Breast cancer
NCI-H522 = assay: NCI one-dose screening, non-small cell lung cancer NCI-H522; type: cell-based, human; conditions: 10 μM
MDA-MB-231/ATCC = assay: NCI one-dose screening, breast cancer MDA-MB-231/ATCC; type: cell-based, human; conditions: 10 μM
SF-539 = assay: NCI one-dose screening, CNS cancer SF-539; type: cell-based, human; conditions: 10 μM
HCT-116 = assay: NCI one-dose screening, colon cancer HCT-116; type: cell-based, human; conditions: 10 μM
SF-268 = assay: NCI one-dose screening, CNS cancer SF-268; type: cell-based, human; conditions: 10 μM
HCC-2998 = assay: NCI one-dose screening, colon cancer HCC-2998; type: cell-based, human; conditions: 10 μM
UACC-62 = assay: NCI one-dose screening, melanoma UACC-62; type: cell-based, human; conditions: 10 μM
786-O = assay: NCI one-dose screening, renal cancer 786-O; type: cell-based, human; conditions: 10 μM
KM12 = assay: NCI one-dose screening, colon cancer KM12; type: cell-based, human; conditions: 10 μM
ACHN = assay: NCI one-dose screening, renal cancer ACHN; type: cell-based, human; conditions: 10 μM
[2] = test system: PC-3 prostate cancer cell line; assay: SRB assay cell viability, PC-3 prostate cancer cell line; type: cell-based, human; conditions: PC-3 prostate cancer cell line, Table II prints no unit, μM printed, read-out: SRB assay: 50% inhibition of cancer cell proliferation of sample concentration (IC50) of PC-3 prostate cancer cell line
T-47D = assay: NCI one-dose screening, breast cancer T-47D; type: cell-based, human; conditions: 10 μM
OVCAR-5 = assay: NCI one-dose screening, ovarian cancer OVCAR-5; type: cell-based, human; conditions: 10 μM
SN12C = assay: NCI one-dose screening, renal cancer SN12C; type: cell-based, human; conditions: 10 μM
SK-MEL-5 = assay: NCI one-dose screening, melanoma SK-MEL-5; type: cell-based, human; conditions: 10 μM
NCl/ADR-RES = assay: NCI one-dose screening, breast cancer NCl/ADR-RES; type: cell-based, human; conditions: 10 μM; listed under Ovarian cancer
OVCAR-4 = assay: NCI one-dose screening, ovarian cancer OVCAR-4; type: cell-based, human; conditions: 10 μM
OVCAR-8 = assay: NCI one-dose screening, ovarian cancer OVCAR-8; type: cell-based, human; conditions: 10 μM
COLO 205 = assay: NCI one-dose screening, colon cancer COLO 205; type: cell-based, human; conditions: 10 μM
SF-295 = assay: NCI one-dose screening, CNS cancer SF-295; type: cell-based, human; conditions: 10 μM
IGROV1 = assay: NCI one-dose screening, ovarian cancer IGROV1; type: cell-based, human; conditions: 10 μM
BT-549 = assay: NCI one-dose screening, breast cancer BT-549; type: cell-based, human; conditions: 10 μM
PC-3 = assay: NCI one-dose screening, prostate cancer PC-3; type: cell-based, human; conditions: 10 μM

O=C1c2ccccc2C(=O)c2c1ccc1nsnc21 [C1, Anthraquinone[2,1-c][1,2,5]thiadiazol-6,11-dione]
Growth Percent DU145 (DU145): 40.76%
Growth Percent SR (SR): 4.96%
Growth Percent HOP-92 (HOP-92): −100.00%
Growth Percent CCRF-CEM (CCRF-CEM): −30.81%
Growth Percent CAKI-1 (CAKI-1): 1.97%
Growth Percent MALME-3M (MALME-3M): −71.64%
Growth Percent TK-10 (TK-10): 96.99%
Growth Percent MCF7 (MCF7): −50.74%
Growth Percent RPMI-8226 (PRMI-8226 cell line): −27.97%
Growth Percent U251 (U251): −89.26%
Growth Percent Delta (human tumor cell lines): 102.68%
Growth Percent Mean (human tumor cell lines): 2.68%
Growth Percent Range (human tumor cell lines): 230.09%
Growth Percent MDA-MB-435 (MDA, -MB-435): −87.88%
Growth Percent SK-MEL-28 (SK-MEL-28): 15.47%
Growth Percent SK-OV-3 (SK-OV-3): 100.70%
Growth Percent A498 [1]: 130.09%
Growth Percent OVCAR-3 (OVCAR-3): −15.47%
Growth Percent RXF 393 (RXF, 393): 20.11%
Growth Percent NCI-H322M (NCI-H322M): 16.07%
Growth Percent MOLT-4 (MOLT-4): −40.09%
Growth Percent SNB-75 (SNB-75): 79.03%
Growth Percent SNB-19 (SNB-19): 78.98%
Growth Percent HOP-62 (HOP-62): 103.18%
Growth Percent UO-31 (UO-31): −79.30%
Growth Percent UACC-257 (UACC-257): −83.07%
Growth Percent NCI-H23 (NCI-H23): 97.80%
Growth Percent MDA-MB-468 (MDA-MB-468): −73.17%
Growth Percent HL-60(TB) (HL-60, TB): −21.77%
Growth Percent SK-MEL-2 (SK-MEL-2): −73.16%
Growth Percent NCI-H460 (NCI-H460): 125.82%
Growth Percent HCT-15 (HCT-15): 1.48%
Growth Percent M14 (M14): 74.54%
Growth Percent K562 (K562cell line): 49.61%
Growth Percent A549/ATCC (A549/ATCC): 104.19%
Growth Percent LOX IMVI (LOX IMVI): −50.63%
Growth Percent HT29 (HT29): 116.95%
Growth Percent HS 578T (HS 578-T): 7.40%
Growth Percent NCI-H522 (NCI-H522): 77.41%
Growth Percent MDA-MB-231/ATCC (MDA-MB-231/ATCC): −17.33%
Growth Percent SF-539 (SF-539): −47.11%
Growth Percent HCT-116 (HCT-116): −50.00%
Growth Percent SF-268 (SF-268): 16.29%
Growth Percent HCC-2998 (HCC-2998): −0.74%
Growth Percent UACC-62 (UACC-62): −82.32%
Growth Percent 786-0 (786-O): −25.98%
Growth Percent KM12 (KM12): 98.60%
Growth Percent ACHN (ACHN): −94.31%
IC50 [2]: 2.5 µM
Growth Percent T-47D (T-47D): −45.52%
Growth Percent OVCAR-5 (OVCAR-5): −20.07%
Growth Percent SN12C (SN12C): −73.27%
Growth Percent SK-MEL-5 (SK-MEL-5): 8.52%
Growth Percent NCI/ADR-RES (NCl/ADR-RES): −2.53%
Growth Percent OVCAR-4 (OVCAR-4): −94.43%
Growth Percent OVCAR-8 (OVCAR-8): −10.07%
Growth Percent COLO 205 (COLO 205): 111.54%
Growth Percent SF-295 (SF-295): 126.17%
Growth Percent IGROV1 (IGROV1): −88.34%

O=C1c2ccccc2C(=O)c2c1cc(Cl)c1nsnc21 [C2, 4-Chloro-anthraquinone[2,1-c][1,2,5] thiadiazole-6,11-dione]
Growth Percent DU145 (DU145): 96.95%
Growth Percent SR (SR): −23.86%
Growth Percent HOP-92 (HOP-92): 75.8%
Growth Percent CCRF-CEM (CCRF-CEM): −41.78%
Growth Percent CAKI-1 (CAKI-1): 96.51%
Growth Percent MALME-3M (MALME-3M): 97.09%
Growth Percent TK-10 (TK-10): 134.06%
Growth Percent MCF7 (MCF7): 65.36%
Growth Percent RPMI-8226 (PRMI-8226 cell line): 27.81%
Growth Percent U251 (U251): 29.19%
Growth Percent Delta (human tumor cell lines): 143.22%
Growth Percent Mean (human tumor cell lines): 54.91%
Growth Percent Range (human tumor cell lines): 222.37%
Growth Percent SK-MEL-28 (SK-MEL-28): 131.75%
Growth Percent SK-OV-3 (SK-OV-3): 109.05%
Growth Percent A498 [1]: 93.79%
Growth Percent OVCAR-3 (OVCAR-3): 49.88%
Growth Percent RXF 393 (RXF, 393): 71.92%
Growth Percent NCI-H322M (NCI-H322M): 75.02%
Growth Percent MOLT-4 (MOLT-4): −34.12%
Growth Percent SNB-75 (SNB-75): 85.25%
Growth Percent SNB-19 (SNB-19): 105.75%
Growth Percent HOP-62 (HOP-62): 82.19%
Growth Percent UO-31 (UO-31): 80.15%
Growth Percent UACC-257 (UACC-257): 76.09%
Growth Percent NCI-H23 (NCI-H23): 100.39%
Growth Percent MDA-MB-468 (MDA-MB-468): −88.31%
Growth Percent HL-60(TB) (HL-60, TB): 1.87%
Growth Percent SK-MEL-2 (SK-MEL-2): 0.21%
Growth Percent BT-549 (BT-549): 101.5%
Growth Percent NCI-H460 (NCI-H460): 108.2%
Growth Percent HCT-15 (HCT-15): 96.8%
Growth Percent M14 (M14): 102.73%
Growth Percent K562 (K562cell line): 2.44%
Growth Percent A549/ATCC (A549/ATCC): 103.21%
Growth Percent LOX IMVI (LOX IMVI): 10.23%
Growth Percent HS 578T (HS 578-T): 72.54%
Growth Percent NCI-H522 (NCI-H522): 100.18%
Growth Percent PC-3 (PC-3): 23.54%
Growth Percent MDA-MB-231/ATCC (MDA-MB-231/ATCC): −23.35%
Growth Percent SF-539 (SF-539): 108.52%
Growth Percent HCT-116 (HCT-116): 48.15%
Growth Percent SF-268 (SF-268): 37.03%
Growth Percent HCC-2998 (HCC-2998): 105.67%
Growth Percent UACC-62 (UACC-62): 72.91%
Growth Percent 786-0 (786-O): 102.14%
Growth Percent KM12 (KM12): 95.88%
IC50 [2]: 13.5 µM
Growth Percent T-47D (T-47D): −54.59%
Growth Percent SN12C (SN12C): 71.92%
Growth Percent SK-MEL-5 (SK-MEL-5): 72.45%
Growth Percent OVCAR-4 (OVCAR-4): −75.03%
Growth Percent OVCAR-8 (OVCAR-8): −4.57%
Growth Percent COLO 205 (COLO 205): 99.08%
Growth Percent SF-295 (SF-295): 109.08%
Growth Percent IGROV1 (IGROV1): 52.47%
